Measured values from patent publication US20240400584A1, “COMPOUNDS AND METHODS FOR MODULATING SPLICING” (REMIX THERAPEUTICS INC., priority 2021, published 2024).
pIC50: −log10 of the molar value. Like-named read-outs stand apart in the source and are kept apart here.

Key:
HTT = assay: Gene panel canonical junction qPCR assay, HTT CJ mRNA (Table 7); type: cell-based, human; conditions: read-out: HTT CJ mRNA decrease IC50
Summary of the method: (§1)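 A673 or K562 cells treated with compound; canonical exon-junction mRNA measured by RT-qPCR with junction-spanning primers/probe, normalised to GAPDH, GUSB or PPIA and DMSO (ΔΔCt, RQ). Percentage response set from fixed ΔCt assay windows, fitted to a 4-parameter logistic; IC50 is concentration giving 50% CJ decrease.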

SMN2 = assay: Gene panel canonical junction qPCR assay, SMN2 CJ mRNA (Table 7); type: cell-based; conditions: Homo sapiens, read-out: SMN2 CJ mRNA decrease IC50
Summary of the method: as §1

Target C = assay: Gene panel canonical junction qPCR assay, Target C CJ mRNA (Table 7); type: cell-based, human; conditions: read-out: Target C CJ mRNA decrease IC50
Summary of the method: as §1

[1] = tested on: HiBit-tagged HTT in K562 cells; assay: HiBiT protein abundance assay, HTT; type: cell-based, human; conditions: HiBiT-modified K562 cells, 24 hours, luminescence
Experimental: (§2) Compounds described herein were used to screen for effects on quantitative protein abundance using a HiBit assay system (Promega). Quantitative protein abundance was determined by measuring the protein levels of HiBit-tagged protein targets expressed in cell culture via luminescence using the Nano-Glo HiBiT Lytic Detection System, which uses a split complementation assay format to reconstitute NanoBiT enzyme to generate a luminescent signal. A protein abundance assay was developed such that endogenous protein targets could be modified with the HiBiT peptide tag and their abundance could be assessed after compound treatment. Briefly, K562 cell lines containing a HiBiT-modification were treated with various compounds described herein (e.g., compounds of Formulas (I)). After treatment for 24 hours, the protein abundance of a specific target was determined by measuring luminescence.
(§3) Cells were maintained in IMDM with 10% FBS. Before the assay, cells were diluted with […] growth media (IMDM+[…] media) and were seeded in a 384-well plate at a density of 10000 cells/well (for each cell line listed in Table 8). Each compound was prepared as a 10-point 3-fold serial dilution in DMSO with the top dose at a final concentration of 10 μM in the well. Unmodified K562 cells were added at the previously specified density with DMSO to serve as an assay baseline and positive control (PC) and DMSO only with the respective modified cell lines was added to the negative control (NC) columns. Final DMSO concentration was kept at or below 0.25% o. Treated cell plates were placed in an incubator at 37° C. with […] for 24 hours. After 24 hours, 25 μL of Complete HiBit Lytic reagent was added to each well at room temperature (e.g. one plate requiring 10 mL Lytic Buffer, 100 μL LgBiT Protein, 200 μL Lytic Substrate), shaken for 5 minutes at 600 RPM, then left to sit for 10 minutes for signal to stabilize before reading on a Spark Cyto plate reader (Tecan) with a 500 ms measurement time.
(§4) To determine compound effects on protein abundance of each target in Table 9, the percent response for each respective cell line was calculated at each compound concentration as follows:
(§5) For the normalized response at each concentration, a four-parameter logistical regression was fit to the data and the response was interpolated at the […] to determine a concentration for protein abundance at 50% o (IC50) the untreated control.

[2] = tested on: HiBit-tagged Target C in K562 cells; assay: HiBiT protein abundance assay, Target C; type: cell-based, human; conditions: HiBiT-modified K562 cells, 24 hours, luminescence
Experimental: as §2, §3, §4, §5

Row | SMILES | pIC50 (HTT; Homo sapiens) | pIC50 (SMN2) | pIC50 (Target C; Homo sapiens) | pIC50 [1] | pIC50 [2] | pIC50 (HTT) | pIC50 (Target C)
1 | Cc1cnc(-c2ccc3c(c2)COc2nc(N(C)[C@@H]4C[C@H]5CC[C@@H](C4)N5)ccc2-3)o1 [Compound 206] | 6.00 to 7.00 | 6.00 to 7.00 | 5.00 to 6.00 | > 7.00 | 6.00 to 7.00 |  | 
2 | CN(c1ccc2c(n1)COc1cc(-c3cn[nH]c3)ccc1-2)[C@@H]1C[C@H]2CC[C@@H](C1)N2 [Compound 121] | 6.00 to 7.00 | 6.00 to 7.00 | 6.00 to 7.00 | > 7.00 | 6.00 to 7.00 |  | 
3 | Cc1ncc(-c2ccc3c(c2)COc2nc(O[C@@H]4C[C@H]5C[C@@H](C4)N5)ccc2-3)s1 [Compound 208] | > 7.00 | > 7.00 | 6.00 to 7.00 | > 7.00 | > 7.00 |  | 
4 | C[C@H]1C[C@H](N(C)c2ccc3c(c2)OCc2cc(-c4cn[nH]c4)ccc2-3)CCN1 [Compound 102] | < 5.00 |  | < 5.00 | 5.00 to 6.00 | 5.00 to 6.00 |  | 
5 | CN(c1ccc2c(c1)OCc1cc(-c3cn[nH]c3)ccc1-2)[C@@H]1C[C@H]2CC[C@@H](C1)N2 [Compound 104] | < 5.00 |  | < 5.00 | 5.00 to 6.00 | 5.00 to 6.00 |  | 
6 | COc1cc(-c2ccc3c(c2)COc2nc(O[C@@H]4C[C@H]5COC[C@@H](C4)N5)ccc2-3)cnn1 [Compound 290, (exo)-7-{[8-(6-methoxypyridazin-4-yl)-6H-isochromeno[3,4-b]pyridin-3-yl]oxy}-3-oxa-9-azabicyclo[3.3.1]nonane] | > 7.00 | > 7.00 | 6.00 to 7.00 | > 7.00 | > 7.00 |  | 
7 | CN(c1ccc2c(n1)COc1cc(-n3cccn3)ccc1-2)C1CC(C)(C)NC(C)(C)C1 [Compound 125] | < 5.00 | < 5.00 | < 5.00 | 5.00 to 6.00 | 5.00 to 6.00 |  | 
8 | CN(c1ccc2c(n1)OCc1cc(-n3ccnn3)ccc1-2)[C@@H]1C[C@H]2CC[C@@H](C1)N2 [Compound 152] | 6.00 to 7.00 | > 7.00 | 6.00 to 7.00 | > 7.00 | 6.00 to 7.00 |  | 
9 | CN(c1ccc2c(n1)OCc1cc(-c3ccn(C)c(=O)c3)ccc1-2)[C@@H]1C[C@H]2CC[C@@H](C1)N2 [Compound 153] | > 7.00 | > 7.00 | > 7.00 | > 7.00 | > 7.00 |  | 
10 | C[C@@H]1C[C@H](N(C)c2ccc3c(c2)OCc2cc(-c4cn[nH]c4)ccc2-3)CCN1 [Compound 101] |  |  | < 5.00 | 5.00 to 6.00 | 5.00 to 6.00 |  | 
11 | CN(c1ccc2c(n1)CCOc1cc(-n3cccn3)ccc1-2)C1CC(C)(C)NC(C)(C)C1 [Compound 129] | < 5.00 | < 5.00 | < 5.00 | < 5.00 | < 5.00 |  | 
12 | CN(c1ccc2c(n1)OCc1cc(-c3cnn(C)c(=O)c3)ccc1-2)[C@@H]1C[C@H]2CC[C@@H](C1)N2 [Compound 160] | > 7.00 | > 7.00 | > 7.00 | > 7.00 | > 7.00 |  | 
13 | c1cc2c(cc1-c1cn[nH]c1)COc1nc(N[C@@H]3C[C@H]4CC[C@@H](C3)N4)cnc1-2 [Compound 143] | 6.00 to 7.00 | 6.00 to 7.00 | 6.00 to 7.00 | 6.00 to 7.00 | 6.00 to 7.00 |  | 
14 | Cc1ncc(-c2ccc3c(c2)COc2nc(N(C)[C@@H]4C[C@H]5CC[C@@H](C4)N5)ccc2-3)o1 [Compound 155] | > 7.00 | > 7.00 | 6.00 to 7.00 | > 7.00 | > 7.00 |  | 
15 | CN(c1cnc2c(n1)OCc1cc(-c3cn[nH]c3)ccc1-2)C1CC(C)(C)NC(C)(C)C1 [Compound 142] |  | 6.00 to 7.00 |  | 6.00 to 7.00 | 5.00 to 6.00 | 6.00 to 7.00 | 5.00 to 6.00
16 | Cc1cn(-c2ccc3c(c2)COc2nc(N(C)[C@@H]4C[C@H]5CC[C@@H](C4)N5)ccc2-3)cn1 [Compound 164] | > 7.00 | > 7.00 | 6.00 to 7.00 | > 7.00 | > 7.00 |  | 
17 | CN(c1ccc2c(n1)OCc1cc(-c3cn[nH]c3)ccc1-2)C1CC(C)(C)NC(C)(C)C1 [Compound 147] | 6.00 to 7.00 | < 5.00 | 6.00 to 7.00 | 6.00 to 7.00 | 6.00 to 7.00 |  | 
18 | COc1cc(-c2ccc3c(c2)COc2nc(N4CCC(NC5(C)CCC5)C4)ccc2-3)cnn1 (stereo not drawn) [Compound 285, 1-[8-(6-methoxypyridazin-4-yl)-6H-isochromeno[3,4-b]pyridin-3-yl]-N-(1-methylcyclobutyl)pyrrolidin-3-amine] | > 7.00 | > 7.00 | 6.00 to 7.00 | 6.00 to 7.00 | 6.00 to 7.00 |  | 
19 | COc1cc(-c2ccc3c(c2)COc2nc(N4CCC(N5CCCC5)C4)ccc2-3)cnn1 (stereo not drawn) [Compound 305] | 6.00 to 7.00 | 6.00 to 7.00 | 5.00 to 6.00 | 6.00 to 7.00 | 6.00 to 7.00 |  | 
20 | CC1(C)CC(Nc2ccc3c(c2)COc2cc(-n4cccn4)ccc2-3)CC(C)(C)N1 [Compound 118] | < 5.00 | < 5.00 |  | 5.00 to 6.00 | 5.00 to 6.00 |  | 
21 | CN(c1cnc2c(n1)OCc1cc(-c3cn[nH]c3)ccc1-2)[C@@H]1C[C@H]2CC[C@@H](C1)N2 [Compound 144] | 6.00 to 7.00 | < 5.00 | 6.00 to 7.00 | > 7.00 | > 7.00 |  | 
22 | CC1(C)CC(Nc2ccc3c(n2)COc2cc(-n4cccn4)ccc2-3)CC(C)(C)N1 [Compound 134] | 5.00 to 6.00 | 5.00 to 6.00 | > 7.00 | 5.00 to 6.00 | 5.00 to 6.00 |  | 
23 | CN(c1ccc2c(n1)OCc1cc(-c3cn[nH]c3)ccc1-2)[C@@H]1C[C@H]2CC[C@@H](C1)N2 [Compound 108] | > 7.00 | > 7.00 | > 7.00 | > 7.00 | > 7.00 |  | 
24 | CC1(C)CC(Nc2ccc3c(n2)OCc2cc(-n4cccn4)ccc2-3)CC(C)(C)N1 [Compound 165] | 6.00 to 7.00 | > 7.00 | 6.00 to 7.00 | > 7.00 | 6.00 to 7.00 |  | 
25 | CN(c1ccc2c(c1)OCc1cc(-n3cccn3)ccc1-2)[C@@H]1C[C@H]2CC[C@@H](C1)N2 [Compound 105] | < 5.00 | < 5.00 |  | 5.00 to 6.00 | 5.00 to 6.00 |  | 
26 | CN(c1ccc2c(c1)COc1cc(-n3cccn3)ccc1-2)C1CC(C)(C)NC(C)(C)C1 [Compound 117] | < 5.00 | < 5.00 |  | 5.00 to 6.00 | 5.00 to 6.00 |  | 
